{"source": "ChEMBL document CHEMBL3352036", "about": "“Identification of 4'-O-β-D-glucosyl-5-O-methylvisamminol as a novel epigenetic suppressor of histone H3 phosphorylation at Ser10 and its interaction with 14-3-3ε” (Bioorg Med Chem Lett, 2014)", "key": {"[1]": {"target": "T1, 14-3-3 protein epsilon (Homo sapiens) (UniProt P62258)", "T1 sequence (whole entry)": "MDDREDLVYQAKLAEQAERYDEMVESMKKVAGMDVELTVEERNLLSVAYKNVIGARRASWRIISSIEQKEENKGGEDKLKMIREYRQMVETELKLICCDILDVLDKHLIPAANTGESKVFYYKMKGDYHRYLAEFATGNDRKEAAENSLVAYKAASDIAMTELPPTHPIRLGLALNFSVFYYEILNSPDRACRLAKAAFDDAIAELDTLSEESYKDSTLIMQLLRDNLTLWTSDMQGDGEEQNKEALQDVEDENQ", "assay": "Inhibition of recombinant 14-3-3epsilon protein (unknown origin) expression in Escherichia coli assessed as reduction in 14-3-3epsilon and histone H3 Ser10 interaction using human HT-29 cells lysates at 1 uM incubated for 1 hr by Western blotting based GST-pull down assay"}, "HT-29 [2]": {"test_system": "HT-29", "assay": "Inhibition of c-Jun protein expression in human HT-29 cells at 10 uM incubated for 1 hr by Western blotting method", "format": "functional, cell-based"}, "HT-29 [3]": {"test_system": "HT-29", "assay": "Inhibition of 14-3-3epsilon protein expression in human HT-29 cells at 10 uM incubated for 1 to 4 hrs by Western blotting method", "format": "functional, cell-based"}, "HT-29 [4]": {"test_system": "HT-29", "assay": "Inhibition of histone H3 Ser10 phosphorylation in human HT-29 cells at 10 uM incubated for 1 hr by Western blotting method", "format": "functional, cell-based"}, "[5]": {"target": "T2, Aurora kinase A (Homo sapiens) (UniProt O14965)", "T2 sequence (whole entry)": "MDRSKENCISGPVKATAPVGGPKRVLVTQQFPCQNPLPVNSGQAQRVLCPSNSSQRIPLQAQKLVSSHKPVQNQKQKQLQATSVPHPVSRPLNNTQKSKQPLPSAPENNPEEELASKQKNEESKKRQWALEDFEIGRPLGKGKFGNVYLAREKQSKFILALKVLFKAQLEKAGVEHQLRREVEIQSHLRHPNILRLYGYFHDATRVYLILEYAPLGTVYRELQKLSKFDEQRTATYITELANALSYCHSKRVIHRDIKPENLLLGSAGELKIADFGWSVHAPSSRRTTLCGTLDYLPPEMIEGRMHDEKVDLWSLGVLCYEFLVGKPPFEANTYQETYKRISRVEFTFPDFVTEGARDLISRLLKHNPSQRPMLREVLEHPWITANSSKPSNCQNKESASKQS", "assay": "Inhibition of Aurora A kinase phosphorylation in human HT-29 cells at 10 uM incubated for 15 to 120 mins by Western blotting method", "format": "cell-based"}, "HT-29 [6]": {"test_system": "HT-29", "assay": "Induction of Nrf2 protein protein expression in human HT-29 cells at 10 uM incubated for 6 to 24 hrs by Western blotting method", "format": "functional, cell-based"}, "HT-29 [7]": {"test_system": "HT-29", "assay": "Toxicity against human HT-29 cells assessed as effect on cell viability at 10 uM incubated for 24 hrs by MTT assay", "format": "cell-based", "conditions": "ht-29, 24 h"}, "HT-29 [8]": {"test_system": "HT-29", "assay": "Induction of cell cycle arrest in human HT-29 cells assessed as accumulation at S phase at 10 uM incubated for 24 hrs by propidium iodide staining based FACS assay (reference value: 21.94%)", "format": "functional"}, "HT-29 [9]": {"test_system": "HT-29", "assay": "Induction of cell cycle arrest in human HT-29 cells assessed as accumulation at G0/G1 phase at 10 uM incubated for 24 hrs by propidium iodide staining based FACS assay (reference value: 60.39%)", "format": "functional"}, "[10]": {"target": "MAP kinase p38 (Homo sapiens) (UniProt O15264+Q15759+Q16539+P53778)", "assay": "Inhibition of p38 phosphorylation in human HT-29 cells at 10 uM incubated for 15 to 120 mins by Western blotting method", "format": "cell-based"}, "HT-29 [11]": {"test_system": "HT-29", "assay": "Induction of HO-1 protein protein expression in human HT-29 cells at 10 uM incubated for 6 to 24 hrs by Western blotting method", "format": "functional, cell-based"}, "HT-29 [12]": {"test_system": "HT-29", "assay": "Induction of cell cycle arrest in human HT-29 cells assessed as accumulation at S phase at 10 uM incubated for 6 hrs by propidium iodide staining based FACS assay (reference value: 21.94%)", "format": "functional"}, "[13]": {"target": "T3, Aurora kinase C (Homo sapiens) (UniProt Q9UQB9)", "T3 sequence (whole entry)": "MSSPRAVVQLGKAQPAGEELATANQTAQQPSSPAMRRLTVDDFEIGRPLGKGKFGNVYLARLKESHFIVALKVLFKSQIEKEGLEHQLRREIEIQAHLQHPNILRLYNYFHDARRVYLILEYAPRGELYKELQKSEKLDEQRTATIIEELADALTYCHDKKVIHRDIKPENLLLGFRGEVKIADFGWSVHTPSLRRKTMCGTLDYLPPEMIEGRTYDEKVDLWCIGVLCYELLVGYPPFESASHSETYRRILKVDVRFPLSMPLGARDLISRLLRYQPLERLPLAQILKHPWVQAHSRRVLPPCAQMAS", "assay": "Inhibition of Aurora C kinase phosphorylation in human HT-29 cells at 10 uM incubated for 15 to 120 mins by Western blotting method", "format": "cell-based"}, "HT-29 [14]": {"test_system": "HT-29", "assay": "Induction of cell cycle arrest in human HT-29 cells assessed as accumulation at subG1 phase at 10 uM incubated for 24 hrs by propidium iodide staining based FACS assay (reference value: 0.79%)", "format": "functional"}, "[15]": {"target": "Aurora kinase B (Homo sapiens) (UniProt Q96GD4)", "sequence (Q96GD4 whole entry)": "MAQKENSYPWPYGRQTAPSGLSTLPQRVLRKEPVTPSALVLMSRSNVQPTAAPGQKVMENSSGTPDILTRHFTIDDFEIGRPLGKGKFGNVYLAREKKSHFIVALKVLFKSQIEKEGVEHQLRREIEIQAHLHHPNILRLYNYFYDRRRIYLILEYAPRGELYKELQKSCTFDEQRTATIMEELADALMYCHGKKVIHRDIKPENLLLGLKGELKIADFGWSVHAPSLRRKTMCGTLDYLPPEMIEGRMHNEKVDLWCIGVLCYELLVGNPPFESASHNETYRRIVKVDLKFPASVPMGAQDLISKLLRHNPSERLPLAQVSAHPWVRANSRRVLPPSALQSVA", "assay": "Inhibition of Aurora B kinase phosphorylation in human HT-29 cells at 10 uM incubated for 15 to 120 mins by Western blotting method", "format": "cell-based"}, "HT-29 [16]": {"test_system": "HT-29", "assay": "Induction of cell cycle arrest in human HT-29 cells assessed as accumulation at subG1 phase at 10 uM incubated for 6 hrs by propidium iodide staining based FACS assay (reference value: 0.79%)", "format": "functional"}, "HT-29 [17]": {"test_system": "HT-29", "assay": "Induction of cell cycle arrest in human HT-29 cells assessed as accumulation at G0/G1 phase at 10 uM incubated for 6 hrs by propidium iodide staining based FACS assay (reference value: 60.39%)", "format": "functional"}, "[18]": {"target": "Mitogen-activated protein kinase 9 (Homo sapiens) (UniProt P45984)", "sequence (P45984 whole entry, looked up)": "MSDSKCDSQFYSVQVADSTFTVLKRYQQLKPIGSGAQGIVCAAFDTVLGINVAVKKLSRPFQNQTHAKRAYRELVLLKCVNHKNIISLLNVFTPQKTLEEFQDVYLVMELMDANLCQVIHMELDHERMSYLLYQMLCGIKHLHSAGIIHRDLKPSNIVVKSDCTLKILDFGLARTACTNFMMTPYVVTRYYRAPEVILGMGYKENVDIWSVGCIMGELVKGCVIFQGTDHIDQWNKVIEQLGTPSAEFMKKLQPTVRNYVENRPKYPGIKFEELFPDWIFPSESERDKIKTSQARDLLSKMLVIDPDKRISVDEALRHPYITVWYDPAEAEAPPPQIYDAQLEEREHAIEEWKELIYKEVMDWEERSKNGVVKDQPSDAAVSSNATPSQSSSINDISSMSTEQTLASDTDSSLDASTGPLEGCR", "assay": "Inhibition of JNK2 phosphorylation in human HT-29 cells at 10 uM incubated for 15 to 120 mins by Western blotting method", "format": "cell-based"}, "[19]": {"target": "Mitogen-activated protein kinase 8 (Homo sapiens) (UniProt P45983)", "sequence (P45983 whole entry)": "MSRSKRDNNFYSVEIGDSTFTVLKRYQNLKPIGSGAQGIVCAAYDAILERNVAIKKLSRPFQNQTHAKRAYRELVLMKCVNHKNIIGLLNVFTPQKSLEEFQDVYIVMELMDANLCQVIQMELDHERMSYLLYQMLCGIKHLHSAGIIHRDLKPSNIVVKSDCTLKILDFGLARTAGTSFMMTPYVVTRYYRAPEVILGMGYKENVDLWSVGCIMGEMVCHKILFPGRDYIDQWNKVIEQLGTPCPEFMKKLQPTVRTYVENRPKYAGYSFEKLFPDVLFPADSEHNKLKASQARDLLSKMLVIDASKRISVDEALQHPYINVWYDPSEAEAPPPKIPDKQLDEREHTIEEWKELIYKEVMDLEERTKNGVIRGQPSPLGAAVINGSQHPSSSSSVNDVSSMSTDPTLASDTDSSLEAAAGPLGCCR", "assay": "Inhibition of JNK1 phosphorylation in human HT-29 cells at 10 uM incubated for 15 to 120 mins by Western blotting method", "format": "cell-based"}, "HT-29 [20]": {"test_system": "HT-29", "assay": "Induction of cell cycle arrest in human HT-29 cells assessed as accumulation at G2/M phase at 10 uM incubated for 24 hrs by propidium iodide staining based FACS assay (reference value: 14.8%)", "format": "functional"}, "HT-29 [21]": {"test_system": "HT-29", "assay": "Induction of cell cycle arrest in human HT-29 cells assessed as accumulation at G2/M phase at 10 uM incubated for 6 hrs by propidium iodide staining based FACS assay (reference value: 14.8%)", "format": "functional"}}, "note": "Activity calls are given as the source filed them. No cut-off for these calls is given here."}
{"compound": "CCCCCCCCCCCCC/C=C1/C(=O)O[C@H](C)[C@@H]1O", "values": [{"measurement": "inhibition", "setting": "[1]", "value": "inactive"}, {"measurement": "inhibition", "setting": "HT-29 [2]", "value": "Active"}, {"measurement": "inhibition", "setting": "HT-29 [3]", "value": "inactive"}, {"measurement": "inhibition", "setting": "HT-29 [4]", "value": "Active"}]}
{"compound": "CC1(C)CC[C@]2(C(=O)O)CC[C@]3(C)C(=CC[C@@H]4[C@@]5(C)CC[C@H](O)C(C)(C)[C@@H]5CC[C@]43C)[C@@H]2C1", "values": [{"measurement": "inhibition", "setting": "[1]", "value": "inactive"}, {"measurement": "inhibition", "setting": "HT-29 [2]", "value": "Active"}, {"measurement": "inhibition", "setting": "HT-29 [3]", "value": "inactive"}, {"measurement": "inhibition", "setting": "HT-29 [4]", "value": "Active"}]}
{"compound": "C[C@H]1[C@H](C)CC[C@]2(C)CC[C@]3(C)C(=CC[C@@H]4[C@@]5(C)CC[C@H](O)C(C)(C)[C@@H]5CC[C@]43C)[C@H]12", "values": [{"measurement": "inhibition", "setting": "[1]", "value": "inactive"}, {"measurement": "inhibition", "setting": "HT-29 [2]", "value": "Active"}, {"measurement": "inhibition", "setting": "HT-29 [3]", "value": "inactive"}, {"measurement": "inhibition", "setting": "HT-29 [4]", "value": "Active"}]}
{"compound": "COc1c2c(cc3oc(C)cc(=O)c13)OC(C(C)(C)O[C@H]1O[C@@H](CO)[C@H](O)[C@@H](O)[C@@H]1O)C2", "note": "(stereo partly drawn)", "values": [{"measurement": "inhibition", "setting": "[5]", "value": "Active"}, {"measurement": "Activity", "setting": "HT-29 [6]", "value": "Active"}, {"measurement": "Activity", "setting": "HT-29 [7]", "value": "Non-toxic"}, {"measurement": "Activity", "setting": "HT-29 [8]", "value": 15.97, "unit": "%"}, {"measurement": "Activity", "setting": "HT-29 [9]", "value": 59.07, "unit": "%"}, {"measurement": "inhibition", "setting": "[1]", "value": "Active"}, {"measurement": "inhibition", "setting": "HT-29 [2]", "value": "Active"}, {"measurement": "inhibition", "setting": "[10]", "value": "inactive"}, {"measurement": "Activity", "setting": "HT-29 [11]", "value": "Active"}, {"measurement": "Activity", "setting": "HT-29 [12]", "value": 16.85, "unit": "%"}, {"measurement": "inhibition", "setting": "[13]", "value": "Active"}, {"measurement": "Activity", "setting": "HT-29 [14]", "value": 0.88, "unit": "%"}, {"measurement": "inhibition", "setting": "[15]", "value": "Active"}, {"measurement": "inhibition", "setting": "HT-29 [3]", "value": "inactive"}, {"measurement": "Activity", "setting": "HT-29 [16]", "value": 1.06, "unit": "%"}, {"measurement": "Activity", "setting": "HT-29 [17]", "value": 58.61, "unit": "%"}, {"measurement": "inhibition", "setting": "HT-29 [4]", "value": "Active"}, {"measurement": "inhibition", "setting": "[18]", "value": "Active"}, {"measurement": "inhibition", "setting": "[19]", "value": "Active"}, {"measurement": "Activity", "setting": "HT-29 [20]", "value": 22.29, "unit": "%"}, {"measurement": "Activity", "setting": "HT-29 [21]", "value": 21.86, "unit": "%"}]}
